Source: US8492391B2, “Substituted 6-(2-hydroxybenzylamino)purine derivatives, their use as medicaments and compositions containing these derivatives” (Univerzita Palackeho V Olomouci, priority 2009, dated 2013)

Key:
[1] = test system: K562 (human chronic myelogenous leukaemia); experiment: Calcein AM cytotoxicity assay, K562; type: cell-based; settings: Homo sapiens, read-out: Cytotoxic activity IC50 (μM) K562
Excerpt: Cytotoxicity of the compounds is the major property determining their anticancer effect in vivo. One of the parameters used, as the basis for cytotoxicity assays, is the metabolic activity of viable cells. For example, a microtiter assay, which uses the Calcein AM, is now widely used to quantitate cell proliferation and cytotoxicity. For instance, this assay is used in drug screening programs and in chemosensitivity testing. Because only metabolically active cells cleave Calcein AM, these assays detect viable cells exclusively. The quantity of cleaved Calcein AM corresponds to the number of vital cells in the culture. We have been using the following cell lines: MCF7 (human breast adenocarcinoma), K562 (human chronic myelogenous leukaemia), HOS (human osteogenic sarcoma), HeLa (human cervical carcinoma), HL 60 (human promyelocytic leukaemia), G 361 (human malignant melanoma), CEM (human lymphoblastoid leukaemia). All cell lines were grown in DMEM medium (Gibco BRL) supplemented with 10% (v/v) fetal bovine serum and L-glutamine and maintained at 37° C. in a humidified atmosphere with 5% CO2. For cytotoxicity assays, 10^4 cells were seeded into each well of 96 well plate, allowed to stabilize for at least 2 h and then tested compounds were added at various concentrations ranging from 100 to 0.1 μM in triplicates. Three days after drug addition Calcein AM solution (Molecular Probes) was added and let to enter the cells for 1 hour. Fluorescence of viable cells was quantified using Fluoroskan Ascent (Microsystems).

p53 = experiment: p53-dependent transcription, β-galactosidase reporter in Arn8 cells; type: cell-based, human; parameters: key to p53 (effect): induction of p53 protein: ++: very strong; +: weak; −: no effect
[2] = test system: p53, p21^WAF1, Mcl-1 in MCF-7 cells; experiment: Immunoblotting of p53, p21WAF1 and Mcl-1 in MCF-7 cells; type: cell-based, human
Method: (§1) For immunoblotting, cell were detached with rubber policeman and washed three times with ice-cold PBS and lysed in buffer (50 mM Tris, pH 7.4, 250 mM NaCl, 5 mM EDTA, 50 mM NaF, 1 mM Na3VO4, 1% Nonidet P40) containing mixture of protease and phosphatase inhibitors (Sigma-Aldrich, USA). 20 μg of total proteins were separated by SDS-polyacrylamide gel electrophoresis (SDS-PAGE) and transferred onto nitrocellulose membranes. Membranes were blocked in 5% milk and 0.1% Tween 20 in PBS and probed overnight with specific monoclonal antibodies or rabbit polyclonal sera. Primary antibodies specific for p53 (DO-1, in house), p21^WAF1 (118, in house), PARP-1 (2C10, Sigma-Aldrich St Louis, Mo., USA), Mcl-1 (S-19, Santa Cruz, USA), all used at 1 μg/ml. All primary antibodies were diluted in PBS containing 5% powdered milk; 0.1% Tween 20. Peroxidase conjugated rabbit anti-mouse immunoglobulin or porcine anti-rabbit immunoglobulin antisera (DAKO, Denmark) were used as the secondary antibodies and visualised with ECL reagents (Amersham-Pharmacia, Little Chalfont, UK).
The induction of p53 protein was apparent in 4 hrs but enhanced level of p21^WAF1 protein was observed only 12 hours after treatment with compound 128 (FIG. 5). The periods of time 12 and 24 hrs were chosen, since the level of protein expression reached a steady state.

p53 in RPMI-8226 cells = experiment: Immunoblotting in RPMI-8226 cells with temperature-sensitive p53 (E285K) at permissive and restrictive temperature; type: cell-based, human
Method: as §1, with “Primary antibodies specific for p53 (DO-1, in house), p21^WAF1 (118, in house), PARP-1 (2C10, Sigma-Aldrich St Louis, Mo., USA), Mcl-1 (S-19, Santa Cruz, USA), all used at 1 μg/ml.” left out
Then, we also determined effect of the compounds on the cell lines expressing some temperature-sensitive mutants of p53. For example, in BT474 and RPMI-8226 cells bearing temperature-sensitive mutant of p53 (E285K), p53 protein switches between mutant and wild-type conformation in a temperature-dependent manner. At restrictive (37° C.) temperature mutated p53 protein is expressed, while after shift to a permissive (30° C.) temperature p53 is folded correctly and functional. To analyze the functional involvement of p53 in the efficiency of the treatment with the compounds, we cultivated RPMI-8226 cells independently at two different temperatures (restrictive or permissive), and exposed them to increasing doses of selected compounds. The cell lysates were prepared and the levels of cell cycle regulators were analysed by immunoblotting.

CCC(CO)Nc1nc(NCc2cccc(OC)c2O)c2ncn(C(C)C)c2n1 (racemic) [Compound 128, (RS)-2-({6-[(2-hydroxy-3-methoxybenzyl)amino]-9-isopropyl-9-H-purin-2-yl}amino)butan-1-ol]
IC50 [1]: 15.5 µM
p53 (effect): induction of p53 protein (p53; Arn8 cells stable transfected with a β-galactosidase reporter gene): ++
total β-galactosidase activity (p53; Arn8 cells, 5 μM, 12 and 24 hours after treatment, vs DMSO control): strong activity of β-galactosidase
p53 (peak concentration in μM) (p53; Arn8 cells, concentration inducing maximum of β-galactosidase activity): 8.0 µM
activation of p53-dependent transcription (p53; Arn8 reporter cell line, β-galactosidase reporter activity): proved to activate p53-dependent transcription
expression of p53, p21^Waf1 and Mcl-1 ([2]; MCF7, 24 h, concentration dependent, immunoblotting): accumulation of tumor suppressor protein p53, expression of p53-regulated CDK inhibitor p21^Waf1 and downregulation of antiapoptotic protein Mcl-1
time after treatment at which enhanced level of p21^WAF1 protein was observed ([2]; MCF-7 cells): 12 h
time at which induction of p53 protein was apparent ([2]; MCF-7 cells): 4 h
drug concentration causing fragmentation of PARP-1, permissive versus restrictive temperature (p53 in RPMI-8226 cells; RPMI-8226 cells): about two-fold lower drug concentrations
level of wild-type p53 protein (p53 in RPMI-8226 cells; RPMI-8226 cells at permissive (30° C.) temperature): caused accumulation of wild-type p53 protein
level of mutant p53 (p53 in RPMI-8226 cells; RPMI-8226 cells at restrictive (37° C.) temperature): did not change the levels of mutant p53
expression of anti-apoptotic protein Mcl-1 (p53 in RPMI-8226 cells; RPMI-8226 cells, 30° C. versus restrictive temperature): suppressed more efficiently at 30 °C
